In patent US11396522B2, “Bis-acetal-based substrates for imaging exo-glycosidase activity” (ALECTOS THERAPEUTICS INC., priority 2017, dated 2022):

Columns and labels:
GBA1 = biological target: T1, GBA1 (Homo sapiens, UniProt P04062); experiment: In vitro kinetic assay with GBA1; format: biochemical; parameters: purchased R&D Systems; details: GBA enzymes at 50 nM
T1 sequence (P04062 40-536): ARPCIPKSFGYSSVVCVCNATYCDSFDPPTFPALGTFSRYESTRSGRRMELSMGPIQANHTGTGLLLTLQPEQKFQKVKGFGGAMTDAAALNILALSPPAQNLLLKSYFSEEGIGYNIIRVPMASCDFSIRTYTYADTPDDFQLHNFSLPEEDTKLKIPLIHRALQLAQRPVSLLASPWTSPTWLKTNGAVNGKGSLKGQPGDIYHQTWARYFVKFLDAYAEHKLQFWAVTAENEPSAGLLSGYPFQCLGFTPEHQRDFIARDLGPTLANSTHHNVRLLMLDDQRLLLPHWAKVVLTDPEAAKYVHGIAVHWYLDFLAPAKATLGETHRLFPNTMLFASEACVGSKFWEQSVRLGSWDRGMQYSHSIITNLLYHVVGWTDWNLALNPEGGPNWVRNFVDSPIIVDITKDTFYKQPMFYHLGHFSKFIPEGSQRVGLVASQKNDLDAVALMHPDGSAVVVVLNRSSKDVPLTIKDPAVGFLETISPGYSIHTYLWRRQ
Method: (§1) For some experiments, fluorescence kinetic assays were performed using a Varian Cary Eclipse Spectrophotometer set for 335/493 nm excitation/emission wavelengths. Slits were set at 10 nm and the detector was set on Medium voltage. Enzymatic reactions with human OGA were carried out in PBS at 37° C. and were started by addition of hOGA (WT, Full-length, expressed in E. coli. as previously described) in a total volume of 160 μL (Starna sub-micro Fluorometer cuvette). For measurements of rates using different concentrations of substrates, a hOGA concentration of 100 nM was used. For hOGA titration, 25 μM of Glyco-BABS were added to various concentration of hOGA. […] EDANS standard curve was established using endpoint fluorescence measurements of serial dilutions of EDANS in the relevant buffer using the same instrument parameters. Inner-Filter effect measurements were carried out in cuvette by measuring fluorescence of several concentrations of EDANS in presence of various concentrations of GlcNAc-BABS. Kinetics with Glc-BABS and GBA enzymes (GBA1 and GBA3 purchased from R&D Systems), kinetics with GALC (R&D systems) and Gal-BABS, pH stability, quenching efficiency, some inner-filter effect experiments and lysates experiments were carried out using a Molecular Devices SpectraMax i3× plate reader. […]

[1] = pH stability of Glyco-BABS; format: physicochemical; details: 5 μM, up to 72 h, pH 2 to 10
From the text: One concern with the Glyco-BABS design was the known lability of acetals under acidic conditions that has been exploited in pH-sensitive prodrugs or linkers for drug delivery.^41,42 However, we recognized that carbohydrate anomeric acetals are chemically distinct from regular acetals. Due to stabilization by the endocyclic oxygen, we expected these bis-acetals would show stability across a range of physiological pH values. We therefore assessed the stability of the bis-acetal motif toward acid and base hydrolysis (FIG. 8). To do so, we tested the pH stability of 5 μM of GlcNAc-Br-BABS 1, GlcNAc-OH-BABS 2, Glc-OH-BABS 6 and Glc-H-BABS 7 at different pH over time. We prepared solutions at various pH by mixing 0.2 M KCl+0.1 M HCl with 0.2 M KCl+0.1 M KOH. Fluorescence of EDANS and Glyco-BABS solutions (5 μM, 45 μL) at different pH was measured at different time points in Nunc 384-well plates using a SpectraMax i3× plate reader. Data (triplicates) support the highly efficient quenching and the stability of these substrates over a wide range of pH.

[2] = biological target: T2, human Galactosylceramidase (GALC) (Homo sapiens, UniProt P54803); experiment: In vitro kinetic assay with human GALC; format: biochemical; details: 5 nM recombinant human GALC
T2 construct: purchased R&D systems
T2 sequence (P54803 43-685): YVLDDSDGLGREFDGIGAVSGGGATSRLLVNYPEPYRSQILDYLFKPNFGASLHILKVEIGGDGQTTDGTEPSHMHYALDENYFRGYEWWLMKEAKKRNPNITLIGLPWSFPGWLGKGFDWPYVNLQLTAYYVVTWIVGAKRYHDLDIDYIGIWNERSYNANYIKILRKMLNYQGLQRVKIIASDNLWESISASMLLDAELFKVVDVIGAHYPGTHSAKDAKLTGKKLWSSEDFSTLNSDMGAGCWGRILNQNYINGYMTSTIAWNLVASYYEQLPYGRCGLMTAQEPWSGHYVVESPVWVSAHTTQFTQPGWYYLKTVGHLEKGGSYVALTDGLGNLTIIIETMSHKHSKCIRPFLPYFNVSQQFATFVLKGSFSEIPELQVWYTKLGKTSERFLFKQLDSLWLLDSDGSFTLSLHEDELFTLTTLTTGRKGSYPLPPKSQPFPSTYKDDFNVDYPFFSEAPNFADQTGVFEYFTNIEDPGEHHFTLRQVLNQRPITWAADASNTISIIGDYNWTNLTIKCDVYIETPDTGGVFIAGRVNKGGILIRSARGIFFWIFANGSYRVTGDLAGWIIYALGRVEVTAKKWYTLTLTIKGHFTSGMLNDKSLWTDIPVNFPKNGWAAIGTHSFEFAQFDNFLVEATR
Method: as §1

turnover by GBA1 (GBA1)	pH stability (increase of fluorescence) [1]	turnover by human GALC [2]	Structure (SMILES)
turned over by GBA1 only	no significant increase of fluorescence		CN(C)c1ccc(/N=N/c2ccc(C(=O)NCc3cn(CCOCCOC(CC(=O)NCCNc4cccc5c(S(=O)(=O)O)cccc45)O[C@@H]4O[C@H](CO)[C@@H](O)[C@H](O)[C@H]4O)nn3)cc2)cc1 (stereo partly drawn) [Compound 7, 5-((2-(3-(2-(2-(4-((4-((E)-(4-(dimethylamino)phenyl)diazenyl)benzamido)methyl)-1H-1,2,3-triazol-1-yl)ethoxy)ethoxy)-3-(((2S,3R,4S,5S,6R)-3,4,5-trihydroxy-6-(hydroxymethyl)tetrahydro-2H-pyran-2-yl)oxy)propanamido)ethyl)amino)naphthalene-1-sulfonic Acid]
		turned over	CN(C)c1ccc(/N=N/c2ccc(C(=O)NCc3cn(CCOCCO[C@H](O[C@@H]4O[C@H](CO)[C@H](O)[C@H](O)[C@H]4O)[C@@](C)(O)C(=O)NCCNc4cccc5c(S(=O)(=O)O)cccc45)nn3)cc2)cc1 [Compound 5, 5-((2-((2R,3R)-3-(2-(2-(4-((4-((E)-(4-(dimethylamino)phenyl)diazenyl)benzamido)methyl)-1H-1,2,3-triazol-1-yl)ethoxy)ethoxy)-2-hydroxy-2-methyl-3-(((2S,3R,4S,5R,6R)-3,4,5-trihydroxy-6-(hydroxymethyl)tetrahydro-2H-pyran-2-yl)oxy)propanamido)ethyl)amino)naphthalene-1-sulfonic Acid]
		turned over	CN(C)c1ccc(/N=N/c2ccc(C(=O)NCc3cn(CCOCCO[C@H](O[C@@H]4O[C@H](CO)[C@H](O)[C@H](O)[C@H]4O)[C@@](C)(Br)C(=O)NCCNc4cccc5c(S(=O)(=O)O)cccc45)nn3)cc2)cc1 [Compound 4, 5-((2-((2R,3R)-2-bromo-3-(2-(2-(4-((4-((E)-(4-(dimethylamino)phenyl)diazenyl)benzamido)methyl)-1H-1,2,3-triazol-1-yl)ethoxy)ethoxy)-2-methyl-3-(((2S,3R,4S,5R,6R)-3,4,5-trihydroxy-6-(hydroxymethyl)tetrahydro-2H-pyran-2-yl)oxy)propanamido)ethyl)amino)naphthalene-1-sulfonic Acid]
